From patent publication US20240408169A1 (priority 2023, published 2024)
Read-outs that look alike come from different tables or passages of the source. *1 amine or outer side, *2 acyl side, *3 side chain or, on linkers, in order; H or OH if unused. Where a SMILES comes first, the peptide text is derived from it. Bridges are numbered along the chain shown (N, C = ends). [ ]: non-standard residue; d: D form. The star is where a group is joined. X48 = CN(C)C[C@H]1CN(c2ccc(-c3ccc(Cl)cc3C[C@@H](C(=O)[*:2])N(C)[*:1])cc2)CCO1; NMePhe(2-(4-MorPh),5-Cl) = CN[C@@H](Cc1cc(Cl)ccc1-c1ccc(N2CCOCC2)cc1)C(=O)O; X63 = CC(C)N1CCN(c2ccc(-c3ccc(Cl)cc3C[C@@H](C(=O)[*:2])N(C)[*:1])cc2F)CC1; X70 = CN1CCC[C@@H](c2ccc(-c3ccc(Cl)cc3C[C@@H](C(=O)[*:2])N(C)[*:1])cc2)C1; X1 = C[C@H]1CN(c2ccc(-c3ccc(Cl)cc3C[C@@H](C(=O)[*:2])N(C)[*:1])cc2)CCN1C; X62 = CN1CCC[C@H](c2ccc(-c3ccc(Cl)cc3C[C@@H](C(=O)[*:2])N(C)[*:1])cc2)C1; X95 = CN1CCCC[C@H]1c1ccc(-c2ccc(Cl)cc2C[C@@H](C(=O)[*:2])N(C)[*:1])cc1; X32 = CN([C@@H](Cc1cc(Cl)ccc1-c1ccc(N2CCOCC2=O)cc1)C(=O)[*:2])[*:1]; NMehhhLys(Me) = CN([C@@H](CCCCCCCN(C)[*:3])C(=O)[*:2])[*:1]; cBuCO(3,3-F2-1-CF3) = O=C(C1(C(F)(F)F)CC(F)(F)C1)*; Pro(trans-4-F) = O=C(O)[C@@H]1C[C@@H](F)CN1; Nva(5-OH) = N[C@@H](CCCO)C(=O)O; Gly(cPr) = N[C@H](C(=O)O)C1CC1

How the values were obtained:
[1] = from (S,Z)-2-((((9H-fluoren-9-yl)methoxy)carbonyl)(methyl)amino)-9-((S)-2-((S)-2-(12-azaneyl)-N,4-dimethylpentanamido)-3-(5-chloro-2-cyclopropoxypyridin-3-yl)-N-methylpropanamido)non-4-enoic acid TFA salt; amide bond; 16-membered ring; PyBOP/HOAt/DIEA; DCM; 2.6 mM; 25.0 °C
WI-38 cells = experiment: MTT proliferation assay, WI-38; assay type: cell-based; settings: 3 days compound exposure, 1:3 serial dilution starting at 10 μM;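 further: Eight- or ten-point dilution series, with exposure length chosen to span about three to four cell doublings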
CyclinE1/CDK2 = molecular target: T1, CyclinE1/CDK2 (Homo sapiens, UniProt P24864); experiment: Fluorescence Polarization (FP) competitive binding assay, Cyclin E1/Cdk2; settings: 10 nM Cyclin E1/Cdk2, 2 nM FAM probe; average of 2-3 independent experiments; read-out: Cyclin E FP IC50;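 further: readings taken after two-hour equilibration at room temperature in HEPES buffer with NaCl, DTT, NP-40 and BSA, IC50 fitted from eight-concentration serial dilution series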
T1 construct: purchased Eurofins, discovery 14-475

CyclinA2/CDK2 = molecular target: T2, CyclinA2/CDK2 (Homo sapiens, UniProt P20248); experiment: Fluorescence Polarization (FP) competitive binding assay, Cyclin A2/Cdk2; settings: 8 nM Cyclin A2/Cdk2, 2 nM FAM probe; average of 2-3 independent experiments; read-out: Cyclin A FP IC50;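 further: plates equilibrated two hours at room temperature before polarization reading, IC50 fitted from eight-concentration compound titration curves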
T2 construct: purchased CRELUX Protein Services

OVCAR3 cells = experiment: MTT proliferation assay, OVCAR3; assay type: cell-based; settings: 5 days compound exposure, 1:3 serial dilution starting at 10 μM;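 further: compound given as an 8- or 10-point series, one day after plating, with exposure covering roughly 3-4 cell doublings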
NCI-H1048 cells = experiment: MTT proliferation assay, NCI-H1048; assay type: cell-based; settings: 5 days compound exposure, 1:3 serial dilution starting at 10 μM;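 further: Dose-response in 96-well plates over 8 or 10 concentration points, with exposure spanning 3-4 cell doublings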
CyclinB1/CDK1 = molecular target: T3, CyclinB1/CDK1 (Homo sapiens, UniProt P14635); experiment: Fluorescence Polarization (FP) competitive binding assay, Cyclin B1/Cdk1; settings: 10 nM Cyclin B1/Cdk1, 2 nM FAM probe; average of 2-3 independent experiments; read-out: Cyclin B FP IC50;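 further: fluorescence polarization read after equilibration at room temperature, with IC50 taken from serially diluted dose-response curves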
T3 construct: purchased Eurofins, discovery 14-450

Row | SMILES | ring closure, yield of all isomers (from CC(C)C[C@H](N)C(=O)N(C)[C@@H](Cc1cc(Cl)cnc1OC1CC1)C(=O)N(C)CCCC/C=C\C[C@@H](C(=O)O)N(C)C(=O)OCC1c2ccccc2-c2ccccc21, amide bond, PyBOP/HOAt/DIPEA, DCM, 2.57 mM, 25.0 °C) [%] | ring closure, yield of all isomers (from C=CCCCCN(C)C(=O)[C@H](Cc1cc(F)ccc1Br)N(C)C(=O)[C@H](CC(C)C)NC(=O)[C@H](CC=C)N(C)C(=O)[C@@H](NC(=O)OC(C)(C)C)C1CC1, rcm bond, Hoveyda-Grubbs II, DCE, 6.3 mM, 70.0 °C) [%] | ring closure, isolated yield [1] [%] | GI50 (WI-38 cells) [nM] | IC50 (CyclinE1/CDK2) [nM] | IC50 (CyclinA2/CDK2) [nM] | GI50 (OVCAR3 cells) [nM] | GI50 (NCI-H1048 cells) [nM] | IC50 (CyclinB1/CDK1) [nM]
1 | CC(C)C[C@@H]1NC(=O)[C@@H](N(C)C(=O)OCC2c3ccccc3-c3ccccc32)C/C=C\CCCCN(C)C(=O)[C@H](Cc2cc(Cl)cnc2OC2CC2)N(C)C1=O | 30 |  |  |  |  |  |  |  | 
2 | CC(C)C[C@@H]1NC(=O)[C@@H](N(C)C(=O)[C@@H](NC(=O)OC(C)(C)C)C2CC2)CC=CCCCCN(C)C(=O)[C@H](Cc2cc(F)ccc2Br)N(C)C1=O |  | 67 |  |  |  |  |  |  | 
3 | CCN(C(=O)OC1c2ccccc2-c2ccccc21)[C@H]1C/C=C\CCCCN(C)C(=O)[C@H](Cc2cc(Cl)cnc2OC2CC2)N(C)C(=O)[C@H](CC(C)C)NC1=O |  |  | 30 |  |  |  |  |  | 
4 | CC(C)C[C@@H]1NC(=O)[C@@H](N(C)C(=O)[C@@H](NC(=O)[C@@H]2C[C@@H](F)CN2C(=O)C2(C(F)(F)F)CC(F)(F)C2)C2CC2)CCCCCCCN(C)C(=O)[C@H](Cc2cc(Cl)ccc2-c2ccc(N3CCOCC3=O)cc2)N(C)C1=O [Example 408] ({cBuCO(3,3-F2-1-CF3)}-[Pro(trans-4-F)][Gly(cPr)][NMehhhLys(Me)]L[X32]; lactam 3-C) |  |  |  | 5530 | 510 | 20 | 10 | 10 | 20
5 | CC(C)C[C@@H]1NC(=O)[C@@H](N(C)C(=O)[C@@H](NC(=O)[C@@H]2C[C@@H](F)CN2C(=O)C2(C(F)(F)F)CC(F)(F)C2)C2CC2)CCCCCCCN(C)C(=O)[C@H](Cc2cc(Cl)ccc2-c2ccc(N3CCN(C)[C@@H](C)C3)cc2)N(C)C1=O [Example 409] ({cBuCO(3,3-F2-1-CF3)}-[Pro(trans-4-F)][Gly(cPr)][NMehhhLys(Me)]L[X1]; lactam 3-C) |  |  |  | 2460 | 670 | 20 | 10 | 10 | 20
6 | CC(C)C[C@@H]1NC(=O)[C@@H](N(C)C(=O)[C@@H](NC(=O)[C@@H]2C[C@@H](F)CN2C(=O)C2(C(F)(F)F)CC(F)(F)C2)C2CC2)CCCCCCCN(C)C(=O)[C@H](Cc2cc(Cl)ccc2-c2ccc(N3CCO[C@@H](CN(C)C)C3)cc2)N(C)C1=O [Example 410] ({cBuCO(3,3-F2-1-CF3)}-[Pro(trans-4-F)][Gly(cPr)][NMehhhLys(Me)]L[X48]; lactam 3-C) |  |  |  | 2000 | 650 | 20 | 10 | 10 | 20
7 | CC(C)C[C@@H]1NC(=O)[C@@H](N(C)C(=O)[C@@H](NC(=O)[C@@H]2C[C@@H](F)CN2C(=O)C2(C(F)(F)F)CC(F)(F)C2)C2CC2)CCCCCCCN(C)C(=O)[C@H](Cc2cc(Cl)ccc2-c2ccc([C@@H]3CCCN(C)C3)cc2)N(C)C1=O [Example 411] ({cBuCO(3,3-F2-1-CF3)}-[Pro(trans-4-F)][Gly(cPr)][NMehhhLys(Me)]L[X70]; lactam 3-C) |  |  |  | 1610 | 760 | 20 | 10 | 10 | 20
8 | CC(C)C[C@@H]1NC(=O)[C@@H](N(C)C(=O)[C@@H](NC(=O)[C@@H]2C[C@@H](F)CN2C(=O)C2(C(F)(F)F)CC(F)(F)C2)C2CC2)CCCCCCCN(C)C(=O)[C@H](Cc2cc(Cl)ccc2-c2ccc([C@H]3CCCN(C)C3)cc2)N(C)C1=O [Example 412] ({cBuCO(3,3-F2-1-CF3)}-[Pro(trans-4-F)][Gly(cPr)][NMehhhLys(Me)]L[X62]; lactam 3-C) |  |  |  | 1060 | 1390 | 20 | 10 | 10 | 20
9 | CC(C)C[C@@H]1NC(=O)[C@@H](N(C)C(=O)[C@@H](NC(=O)[C@@H]2C[C@@H](F)CN2C(=O)C2(C(F)(F)F)CC(F)(F)C2)C2CC2)CCCCCCCN(C)C(=O)[C@H](Cc2cc(Cl)ccc2-c2ccc(N3CCN(C(C)C)CC3)c(F)c2)N(C)C1=O [Example 413] ({cBuCO(3,3-F2-1-CF3)}-[Pro(trans-4-F)][Gly(cPr)][NMehhhLys(Me)]L[X63]; lactam 3-C) |  |  |  | 1600 | 1310 | 20 | 10 | 10 | 20
10 | COC(=O)CC[C@H](NC(=O)[C@@H]1C[C@@H](F)CN1C(=O)C1(C(F)(F)F)CC(F)(F)C1)C(=O)N(C)[C@H]1CCCCCCCN(C)C(=O)[C@H](Cc2cc(Cl)ccc2-c2ccc(N3CCOCC3)cc2)N(C)C(=O)[C@H](CC(C)C)NC1=O [Example 415] ({cBuCO(3,3-F2-1-CF3)}-[Pro(trans-4-F)]E(OMe)[NMehhhLys(Me)]L[NMePhe(2-(4-MorPh),5-Cl)]; lactam 3-C) |  |  |  | 14100 | 300 | 20 | 10 | 10 | 20
11 | CC(C)C[C@@H]1NC(=O)[C@@H](N(C)C(=O)[C@@H](NC(=O)[C@@H]2C[C@@H](F)CN2C(=O)C2(C(F)(F)F)CC(F)(F)C2)C2CC2)CCCCCCCN(C)C(=O)[C@H](Cc2cc(Cl)ccc2-c2ccc([C@@H]3CCCCN3C)cc2)N(C)C1=O [Example 417] ({cBuCO(3,3-F2-1-CF3)}-[Pro(trans-4-F)][Gly(cPr)][NMehhhLys(Me)]L[X95]; lactam 3-C) |  |  |  | 1160 | 2650 | 30 | 10 | 10 | 20
12 | CC(C)C[C@@H]1NC(=O)[C@@H](N(C)C(=O)[C@H](CCC(=O)N(C)C)NC(=O)[C@@H]2C[C@@H](F)CN2C(=O)C2(C(F)(F)F)CC(F)(F)C2)CCCCCCCN(C)C(=O)[C@H](Cc2cc(Cl)ccc2-c2ccc(N3CCOCC3)cc2)N(C)C1=O [Example 419, (S)—N1-((3S,6S,9S)-3-((4-chloro-4′-morpholino-[1,1′-biphenyl]-2-yl)methyl)-6-isobutyl-1,4-dimethyl-2,5,8-trioxo-1,4,7-triazacyclohexadecan-9-yl)-2-((2S,4R)-1-(3,3-difluoro-1-(trifluoromethyl)cyclobutane-1-carbonyl)-4-fluoropyrrolidine-2-carboxamido)-N1,N5,N5-trimethylpentanediamide] ({cBuCO(3,3-F2-1-CF3)}-[Pro(trans-4-F)]E(NMe2)[NMehhhLys(Me)]L[NMePhe(2-(4-MorPh),5-Cl)]; lactam 3-C) |  |  |  | 1990 | 540 | 20 | 20 | 20 | 20
13 | CC(C)C[C@@H]1NC(=O)[C@@H](N(C)C(=O)[C@H](CCC(=O)N2CCN(C)CC2)NC(=O)[C@@H]2C[C@@H](F)CN2C(=O)C2(C(F)(F)F)CC(F)(F)C2)CCCCCCCN(C)C(=O)[C@H](Cc2cc(Cl)ccc2-c2ccc(N3CCOCC3)cc2)N(C)C1=O [Example 420] |  |  |  | 3510 | 190 | 20 | 20 | 10 | 20
14 | CC(C)C[C@@H]1NC(=O)[C@@H](N(C)C(=O)[C@H](CCCO)NC(=O)[C@@H]2C[C@@H](F)CN2C(=O)C2(C(F)(F)F)CC(F)(F)C2)CCCCCCCN(C)C(=O)[C@H](Cc2cc(Cl)ccc2-c2ccc(N3CCOCC3)cc2)N(C)C1=O [Example 421] ({cBuCO(3,3-F2-1-CF3)}-[Pro(trans-4-F)][Nva(5-OH)][NMehhhLys(Me)]L[NMePhe(2-(4-MorPh),5-Cl)]; lactam 3-C) |  |  |  | 19100 | 510 | 20 | 10 | 10 | 20
15 | [2H]C([2H])([2H])N(C(=O)[C@@H](NC(=O)[C@@H]1C[C@@H](F)CN1C(=O)C1(C(F)(F)F)CC(F)(F)C1)C1CC1)[C@H]1CCCCCCCN(C)C(=O)[C@H](Cc2cc(Cl)ccc2-c2ccc(N3CCN(C)CC3)cc2)N(C)C(=O)[C@H](CC(C)C)NC1=O [Example 422] |  |  |  | 2360 | 420 | 20 | 10 | 10 | 20
